Each structure is given as a SMILES string. Where two headings read alike, the source gives them in different places. A value given as a limit tells only on which side of the number the result lay.

The record followed here is US20230212116A1, “SARS-COV-2 MAIN PROTEASE INHIBITORS” (TEXAS A&M UNIVERSITY SYSTEM, priority 2020, published 2023).

The test system of test [1] is SARS-CoV-2. The test is classed as cell-based. The following applies: A549/ACE2 cells; tested 80 nM to 10 μM.
The subject of test [2] is SARS-CoV-2. In words: microbe, parasite or virus in culture. The test is classed as cell-based.
Test [3] relates to SARS-CoV-2. Type of test: cell-based.
In test [4] the target is T1, SARS-CoV-2 M^Pro (Severe acute respiratory syndrome coronavirus 2, UniProt P0DTD1). The experiment in a line: biochemical. The test is classed as biochemical. Conditions: read-out: Enzymatic IC50.
For test [5], the target named is T1, SARS-CoV-2 M^Pro. Type of test: cell-based.
Setting [6] is: Severe acute respiratory syndrome coronavirus 2, Vero C1008, Vero E6 cells, plaque reduction, read-out: antiviral EC50.
Where [7] appears, read: Vero E6 cells, tested 80 nM to 10 μM, two repeats.

As to `C[C@@H](OC(C)(C)C)[C@H](NC(=O)OCc1ccccc1)C(=O)N[C@@H](Cc1ccccc1)C(=O)N[C@H](C=O)C[C@@H]1CCNC1=O` [MPI7, benzyl ((2S,3R)-3-(tert-butoxy)-1-oxo-1-(((S)-1-oxo-1-(((S)-1-oxo-3-((S)-2-oxopyrrolidin-3-yl)propan-2-yl)amino)-3-phenylpropan-2-yl)amino)butan-2-yl)carbamate], the “concentration of complete abolition of SARS-CoV-2-induced CPE” value (shortened to “concentration”) in test [1] was “not able to completely abolish CPE at all tested conditions”; in test [3] (setting [7]), 2.5 to 5 µM. For the same compound, the EC50 (usually the concentration at which the effect is half-maximal) in test [2] (setting [6]) was found to be 170 nM.

As for `CC(C)C[C@H](NC(=O)[C@@H](NC(=O)OCc1ccccc1)[C@@H](C)OC(C)(C)C)C(=O)N[C@H](C=O)C[C@@H]1CCNC1=O` [MPI6, benzyl ((2S,3R)-3-(tert-butoxy)-1-(((S)-4-methyl-1-oxo-1-(((S)-1-oxo-3-((S)-2-oxopyrrolidin-3-yl)propan-2-yl)amino)pentan-2-yl)amino)-1-oxobutan-2-yl)carbamate], the concentration for a half-maximal effect (EC50) in test [2] (Severe acute respiratory syndrome coronavirus 2, Vero C1008, read-out: antiviral EC50, Vero E6 cells, plaque reduction) stood at 209 nM.

For the compound `CC(C)[C@H](NC(=O)OCc1ccccc1)C(=O)N[C@@H](CC1CCCCC1)C(=O)N[C@H](C=O)C[C@@H]1CCNC1=O` [MPI5, benzyl ((S)-1-(((S)-3-cyclohexyl-1-oxo-1-(((S)-1-oxo-3-((S)-2-oxopyrrolidin-3-yl)propan-2-yl)amino)propan-2-yl)amino)-3-methyl-1-oxobutan-2-yl)carbamate], the EC50 in test [2] (setting [6]) is 73 nM. Besides, the “concentration” value in test [3] (setting [7]) came to 5 µM.

With `CC(C)C[C@H](NC(=O)OCc1ccccc1)C(=O)N[C@@H](CC1CCNC1=O)C(O)S(=O)(=O)O` (stereo partly drawn) [GC376, (2S)-2-((S)-2-(((benzyloxy)carbonyl)amino)-4-methylpentanamido)-1-hydroxy-3-(2-oxopyrrolidin-3-yl)propane-1-sulfonic acid, reference compound], the “concentration” value in test [3] (setting [7]) was found to be 10 µM.

For the compound `C[C@@H](OC(C)(C)C)[C@H](NC(=O)OCc1ccc(F)cc1)C(=O)N[C@@H](CC1CCCCC1)C(=O)N[C@H](C=O)C[C@@H]1CCNC1=O` [MPI103, 4-fluorobenzyl ((2S,3R)-3-(tert-butoxy)-1-(((S)-3-cyclohexyl-1-oxo-1-(((S)-1-oxo-3-((S)-2-oxopyrrolidin-3-yl)propan-2-yl)amino)propan-2-yl)amino)-1-oxobutan-2-yl)carbamate], in test [4], the half-maximal inhibitory concentration (IC50) (commonly the point on the concentration scale where inhibition reaches its midpoint) is 196 ± 31 nM.

With `CC(C)C[C@H](NC(=O)[C@@H](NC(=O)OCc1ccccc1)C(C)C)C(=O)N[C@H](C=O)C[C@@H]1CCNC1=O` [MPI3, benzyl ((S)-3-methyl-1-(((S)-4-methyl-1-oxo-1-(((S)-1-oxo-3-((S)-2-oxopyrrolidin-3-yl)propan-2-yl)amino)pentan-2-yl)amino)-1-oxobutan-2-yl)carbamate], the “concentration” value in test [3] is “not able to completely prevent CPE at all tested concentrations”.

As to `C=C(Cc1ccccc1)C(=O)N(CCC(N)=O)NC(=O)[C@H](CC(C)C)NC(=O)OCc1ccccc1` [MPI42, benzyl (S)-(1-(2-(3-amino-3-oxopropyl)-2-(2-benzylacryloyl)hydrazineyl)-4-methyl-1-oxopentan-2-yl)carbamate], the half-inhibitory concentration (IC50) in test [4] was greater than 10000 nM.

On to `C=CC(=O)N(CCC(N)=O)NC(=O)[C@H](CC(C)C)NC(=O)[C@@H](NC(=O)OCc1ccccc1)C(C)C` [MPI51, benzyl ((S)-1-(((S)-1-(2-acryloyl-2-(3-amino-3-oxopropyl)hydrazineyl)-4-methyl-1-oxopentan-2-yl)amino)-3-methyl-1-oxobutan-2-yl)carbamate], for which the 50% inhibitory concentration (IC50) in test [4] was 36 nM.

For the compound `C[C@@H](OC(C)(C)C)[C@H](NC(=O)OCc1ccccc1)C(=O)N[C@@H](CC1CCCCC1)C(=O)N[C@H](C=O)C[C@@H]1CCNC1=O` [MPI8, benzyl ((2S,3R)-3-(tert-butoxy)-1-(((S)-3-cyclohexyl-1-oxo-1-(((S)-1-oxo-3-((S)-2-oxopyrrolidin-3-yl)propan-2-yl)amino)propan-2-yl)amino)-1-oxobutan-2-yl)carbamate], in test [5], the “suppression of M^Pro-eGFP toxicity / promotion of cell survival and M^Pro-eGFP expression” value was “effectively suppressed”.

As to `CCC(=O)N(CCC(N)=O)NC(=O)[C@H](CC(C)C)NC(=O)OCc1ccccc1` [MPI36, benzyl (S)-(1-(2-(3-amino-3-oxopropyl)-2-propionylhydrazineyl)-4-methyl-1-oxopentan-2-yl)carbamate], the half-maximal inhibitory concentration (IC50) in test [4] is greater than 10000 nM.

`O=C[C@H](C[C@@H]1CCNC1=O)NC(=O)[C@H](CC1CCCCC1)NC(=O)c1cc2ccccc2[nH]1` [MPI10, N-((S)-3-cyclohexyl-1-oxo-1-(((S)-1-oxo-3-((S)-2-oxopyrrolidin-3-yl)propan-2-yl)amino)propan-2-yl)-1H-indole-2-carboxamide, reference compound]: the results for the “concentration” value in test [1] and in test [3] (setting [7]) were “potency similar to that shown in Vero E6 cells” and 10 µM, respectively.
